The values that follow come from US11319305B2, “Pyrimidine sulfamide derivative and preparation method and medical application thereof” (SHIJIAZHUANG SAGACITY NEW DRUG DEVELOPMENT CO., LTD., priority 2017, dated 2022).

What is called IC50 is the point on the concentration scale where inhibition reaches its midpoint. As usually defined, the half-life is the time in which the quantity being followed falls by half. A high value points to slow loss. By clearance is commonly meant the rate of elimination divided by the concentration. What is called bioavailability is the share of a dose that reaches the circulation, judged against a reference dose that is usually intravenous.

Some results are limits rather than exact numbers.

For one data set, the target named is T1, CYP3A4 (Homo sapiens, UniProt P08684).
T1 construct: Mixed human liver microsomes (HLM) were purchased from Corning Inc; tissue Corning Inc; host or cells: pooled human liver microsomes
T1 sequence (P08684 whole entry): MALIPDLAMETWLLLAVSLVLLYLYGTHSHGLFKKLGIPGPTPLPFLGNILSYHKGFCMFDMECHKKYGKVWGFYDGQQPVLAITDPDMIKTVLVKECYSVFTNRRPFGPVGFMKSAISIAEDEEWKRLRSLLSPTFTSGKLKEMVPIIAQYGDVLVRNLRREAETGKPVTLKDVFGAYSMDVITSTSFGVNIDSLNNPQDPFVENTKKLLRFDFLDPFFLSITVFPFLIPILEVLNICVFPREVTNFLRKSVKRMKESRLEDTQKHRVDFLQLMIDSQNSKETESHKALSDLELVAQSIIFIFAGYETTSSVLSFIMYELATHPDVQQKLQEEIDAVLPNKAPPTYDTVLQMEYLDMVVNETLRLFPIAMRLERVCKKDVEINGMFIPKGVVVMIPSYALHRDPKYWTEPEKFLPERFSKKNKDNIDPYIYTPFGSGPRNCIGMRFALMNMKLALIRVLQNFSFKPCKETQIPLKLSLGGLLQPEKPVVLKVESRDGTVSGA
As to the kind of experiment: Human liver microsomal cytochrome P450 isozyme inhibition assay, CYP3A4. The data set is classed as in vitro ADME. To be noted: human liver microsomes. On the procedure:
(§1) Experimental Embodiment 4: Human Liver Microsomal Cytochrome P450 Isozyme Inhibition Assay The purpose of the assay was to evaluate the inhibitory activity of the samples against human liver microsomal cytochrome P450 isozyme (CYP1A2, CYP2C9, CYP2C19, CYP2D6 and CYP3A4) using the 5-in-1 probe substrate of the CYP isozyme. Mixed human liver microsomes (HLM) were purchased from Corning Inc. (Steuben, N.Y., USA) and stored below −80° C. before use. The test compound working solution which has been diluted into serial concentrations was added to an incubation system containing human liver microsomes, probe substrates and circulating system cofactors, and a control containing solvent without the test compound was used as the enzyme activity control (100%). The concentration of the metabolite produced by the probe substrate in the sample was determined using a liquid chromatography-tandem mass spectrometry (LC-MS/MS) method. Nonlinear regression analysis was performed on the average percent activity versus concentration of subjects using SigmaPlot (V.11). The IC50 value was calculated by a three-parameter or four-parameter inverse-logarithmic equation.
On the technique in general: Liver microsomes are vesicles of endoplasmic reticulum, rich in cytochrome P450 enzymes.

A further data set deals with T2, CYP2C9 (Homo sapiens, UniProt P11712).
T2 construct: Mixed human liver microsomes (HLM) were purchased from Corning Inc; tissue Corning Inc; host or cells: pooled human liver microsomes
T2 sequence (P11712 whole entry): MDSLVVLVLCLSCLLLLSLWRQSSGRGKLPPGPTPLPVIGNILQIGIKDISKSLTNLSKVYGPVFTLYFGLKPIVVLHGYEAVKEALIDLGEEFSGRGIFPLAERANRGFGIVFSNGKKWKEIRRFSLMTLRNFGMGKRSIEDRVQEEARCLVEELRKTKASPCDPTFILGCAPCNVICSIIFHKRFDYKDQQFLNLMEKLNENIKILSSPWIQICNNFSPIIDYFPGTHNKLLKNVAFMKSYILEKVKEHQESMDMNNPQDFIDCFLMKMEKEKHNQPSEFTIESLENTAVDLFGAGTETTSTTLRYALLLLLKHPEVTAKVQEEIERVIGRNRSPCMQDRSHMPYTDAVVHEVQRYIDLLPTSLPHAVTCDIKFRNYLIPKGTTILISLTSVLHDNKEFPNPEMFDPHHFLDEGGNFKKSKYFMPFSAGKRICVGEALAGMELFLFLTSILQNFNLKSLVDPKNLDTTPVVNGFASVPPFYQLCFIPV
The data set is described as follows: Human liver microsomal cytochrome P450 isozyme inhibition assay, CYP2C9. The data set is classed as in vitro ADME. To be noted: human liver microsomes. On the procedure:
as §1

Another data set has as its target T3, CYP2D6 (Homo sapiens, UniProt P10635).
T3 construct: Mixed human liver microsomes (HLM) were purchased from Corning Inc; tissue Corning Inc; host or cells: pooled human liver microsomes
The data set is described as follows: Human liver microsomal cytochrome P450 isozyme inhibition assay, CYP2D6. Particulars: human liver microsomes. In kind it is in vitro ADME. On the procedure:
as §1

Data set [1] in a line: Pharmacokinetics in SD rats. The data set is classed as in vivo. To be noted: male, Sprague-Dawley, rat, plasma; for half-life / clearance: intravenous injection 2 mg/kg; for clearance: iv, 2 mg/kg, read-out: Plasma clearance rate. From the text: Experimental Embodiment 6: Evaluation on the Pharmacokinetic of the Compounds in Rats
SD male rats were selected as the test animals in this study, and the drug concentration in plasma of the rats at different time points via intravenous injection or oral gastric administration of the test compound was quantitatively measured using LC/MS/MS method to evaluate the pharmacokinetic characteristics of the test compounds in rats.
Sprague Dawley (SD) rats (male, 200-300 g, 7-10 weeks old, Beijing Viton Lihua or Shanghai Slake).
A clear solution of the test compound was injected into SD rats via the tail vein (overnight fasting), or administrated orally by gavage (overnight fasting). For intravenous administration, 200 μL of jugular blood was collected via vein puncture at 0 hour (pre-dosing) and at 0.0833, 0.25, 0.5, 1, 2, 4, 6, 8 and 24 hours after dosing, which was then placed in an anticoagulation tube supplemented with EDTA-K2 (Suzuki Healthcare Medical Co., Ltd.). The mixture in the anticoagulation tube was vortexed to mix thoroughly at 4° C., and then centrifuged at 13000 rpm for 10 minutes to collect the plasma. For oral gavage administration, 200 μL of jugular blood was collected via vein puncture at 0 hour (pre-dosing) and at 0.5, 1, 2, 4, 6, 8 and 24 hours after dosing, which was then placed in an anticoagulation tube supplemented with EDTA-K2 (Suzuki Healthcare Medical Co., Ltd.). The mixture in the anticoagulation tube was vortexed to mix thoroughly, and then centrifuged at 13000 rpm for 10 minutes to collect the plasma. Plasma drug concentration was measured by LC/MS/MS method, and related pharmacokinetic parameters were calculated using WinNonlin™ Version 6.3 (Pharsight, Paul View, Calif.) pharmacokinetics software in non-room model linear logarithmic trapezoids method.

Another data set addresses T4, CYP2C19 (Homo sapiens, UniProt P33261).
T4 construct: Mixed human liver microsomes (HLM) were purchased from Corning Inc; tissue Corning Inc; host or cells: pooled human liver microsomes
The data set is described as follows: Human liver microsomal cytochrome P450 isozyme inhibition assay, CYP2C19. In kind it is in vitro ADME. To be noted: human liver microsomes. On the procedure: as §1

In data set [2] the test system is human liver microsomal cytochrome P450 isozyme (CYP1A2, CYP2C9, CYP2C19, CYP2D6 and CYP3A4). As to the kind of experiment: Human liver microsomal cytochrome P450 isozyme inhibition assay, summary over the main isozymes. The data set is classed as in vitro ADME. On the procedure:
as §1

T3 sequence (P10635 whole entry): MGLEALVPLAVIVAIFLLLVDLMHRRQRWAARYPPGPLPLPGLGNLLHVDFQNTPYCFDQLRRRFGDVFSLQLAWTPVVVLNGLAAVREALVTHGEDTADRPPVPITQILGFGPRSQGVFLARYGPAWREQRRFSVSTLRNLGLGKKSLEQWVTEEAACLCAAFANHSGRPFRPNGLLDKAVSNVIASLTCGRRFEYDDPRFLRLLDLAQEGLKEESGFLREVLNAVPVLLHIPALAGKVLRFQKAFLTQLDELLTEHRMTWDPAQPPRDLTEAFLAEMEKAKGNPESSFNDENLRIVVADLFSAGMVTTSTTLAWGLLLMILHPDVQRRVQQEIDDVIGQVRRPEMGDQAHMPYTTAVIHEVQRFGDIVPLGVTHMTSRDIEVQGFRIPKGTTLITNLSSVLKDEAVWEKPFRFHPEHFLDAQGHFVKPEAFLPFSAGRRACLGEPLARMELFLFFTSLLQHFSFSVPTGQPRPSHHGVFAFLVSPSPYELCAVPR
T4 sequence (P33261 whole entry): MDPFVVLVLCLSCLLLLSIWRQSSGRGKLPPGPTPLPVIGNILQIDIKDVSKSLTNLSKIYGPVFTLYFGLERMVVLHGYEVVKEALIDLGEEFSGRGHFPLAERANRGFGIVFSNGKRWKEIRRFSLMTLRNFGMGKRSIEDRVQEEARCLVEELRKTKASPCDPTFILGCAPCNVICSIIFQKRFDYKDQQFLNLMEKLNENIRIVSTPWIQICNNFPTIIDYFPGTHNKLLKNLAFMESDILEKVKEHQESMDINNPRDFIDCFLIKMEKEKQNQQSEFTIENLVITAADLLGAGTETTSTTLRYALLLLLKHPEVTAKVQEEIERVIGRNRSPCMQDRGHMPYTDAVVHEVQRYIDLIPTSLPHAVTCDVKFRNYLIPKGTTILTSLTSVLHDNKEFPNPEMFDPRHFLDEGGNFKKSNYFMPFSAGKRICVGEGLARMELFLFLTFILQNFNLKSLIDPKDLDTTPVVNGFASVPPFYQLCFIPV

For `COCCNS(=O)(=O)Nc1ncnc(OCCOc2ncc(Br)cn2)c1-c1ccc2c(c1)OCO2` [WX013], the IC50 is 18 µM on CYP3A4, greater than 50 µM at CYP2C9, greater than 50 µM against CYP2D6 and greater than 50 µM at CYP2C19. The molecule also showed a half-life in data set [1] of 1.14 h. Besides, the clearance in data set [1] was less than 5 mL/min/kg. In data set [1] (po, 10 mg/kg, oral administration 10 mg/kg), the bioavailability is greater than 70%. Further, the “inhibitory effects on five main isozymes of CYP (in words)” value in data set [2] is “very weak”.

With `NS(=O)(=O)Nc1ncnc(OCCOc2ncc(Br)cn2)c1-c1ccc2c(c1)OCO2` [WX001], in data set [1], the half-life was 1.26 h and the clearance was less than 5 mL/min/kg.
